We go through twelve compounds from patent US11059832B2, “HPK1 inhibitors and methods of using same” (University Health Network, priority 2015, dated 2021).

Structures are written as SMILES. pIC50: −log10 of the molar value. A value given as a limit tells only on which side of the number the result lay.

As usually defined, the pIC50 is the IC50 on a negative log10 scale, so that one unit is a factor of ten.

Assay [1] has as its target T1, FLT3 (Homo sapiens, UniProt P36888).
T1 construct: purchased Invitrogen PV3182
T1 sequence (P36888 27-993): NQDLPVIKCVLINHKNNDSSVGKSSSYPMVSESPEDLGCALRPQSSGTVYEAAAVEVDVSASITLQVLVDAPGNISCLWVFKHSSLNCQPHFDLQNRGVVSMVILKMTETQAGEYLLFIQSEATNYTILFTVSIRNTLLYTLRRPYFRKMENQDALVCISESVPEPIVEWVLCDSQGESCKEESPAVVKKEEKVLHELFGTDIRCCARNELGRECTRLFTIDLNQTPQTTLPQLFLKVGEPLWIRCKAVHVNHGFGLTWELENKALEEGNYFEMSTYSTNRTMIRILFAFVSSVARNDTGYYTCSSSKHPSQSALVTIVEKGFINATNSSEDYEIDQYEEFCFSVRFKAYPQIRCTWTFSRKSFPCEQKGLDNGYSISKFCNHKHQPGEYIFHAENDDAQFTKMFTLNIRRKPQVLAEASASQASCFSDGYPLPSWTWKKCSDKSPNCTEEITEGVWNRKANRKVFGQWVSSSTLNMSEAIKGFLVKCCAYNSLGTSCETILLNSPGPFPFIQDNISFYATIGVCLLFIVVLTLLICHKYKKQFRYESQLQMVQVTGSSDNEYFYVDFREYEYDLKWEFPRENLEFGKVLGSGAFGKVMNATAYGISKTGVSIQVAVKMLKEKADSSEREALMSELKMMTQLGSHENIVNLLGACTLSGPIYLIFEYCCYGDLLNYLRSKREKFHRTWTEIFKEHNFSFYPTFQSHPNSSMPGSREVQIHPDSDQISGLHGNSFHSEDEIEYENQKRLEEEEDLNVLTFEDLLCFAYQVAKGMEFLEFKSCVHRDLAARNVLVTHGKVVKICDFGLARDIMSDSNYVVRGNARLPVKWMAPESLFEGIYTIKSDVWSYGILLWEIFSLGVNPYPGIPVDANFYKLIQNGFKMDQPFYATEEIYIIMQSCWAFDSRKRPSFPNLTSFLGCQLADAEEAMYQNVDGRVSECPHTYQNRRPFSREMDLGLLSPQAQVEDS
As to the kind of experiment: FLT3 inhibition, FRET based Z'-LYTE Kinase Assay. The assay is classed as biochemical. As to conditions: 1 nM FLT3, 940 μM ATP; read-out: IC50 Range Flt3. The method, then:
(§1) FLT3 and LCK compound inhibition were determined using FRET based Z′-LYTE Kinase Assay Kit with Tyrosine 2 peptide as the substrate (Invitrogen cat #PV3191). […] The % inhibition values were determined according to the manufacturer's directions and IC50 values were obtained using a non-linear 4 point logistic curve fit (XLfit4, IDBS).

The test system of assay [2] is ERK1/2 T202/Y204 phosphorylation in α-CD3 stimulated Jurkat E6.1 cells. As to the kind of experiment: In vitro phosphorylation assay, ERK1/2 T202/Y204 (immunoblot). The assay is classed as cell-based. As to conditions: Homo sapiens, 4 h pretreatment, read-out: ERK1/2 T202/Y204 Phosphorylation Onset Inhibition. The method, then: (§2) Jurkat E6.1 cells were obtained from American Type Culture Collection (ATCC, Manassas, Va.), and maintained according to the supplier's instructions. Cells were washed three times and starved in RPMI 1640 medium supplemented with 0.5% fetal calf serum for 18 h at 37° C. Serum starved cells were pretreated with the indicated concentration of inhibitor for 4 hours before stimulation with 10 μg/ml α-CD3 antibody (BioLegend, Inc., San Diego, Calif.) for 10 min at 37° C. The cells were washed once in phosphate-buffered saline (pH 7.4) containing 10 mm sodium pyrophosphate, 10 mm sodium fluoride, 10 mm EDTA, and 1 mm sodium orthovanadate. Protein lysates were prepared using ice-cold radioimmunoprecipitation assay (RIPA) lysis buffer. A total of 100 μg of cell lysate was loaded onto Bis-Tris gels (Life Technologies, Carlsbad, Calif.) with full-range molecular weight marker as a size reference, and resolved by SDS-PAGE electrophoresis. Proteins were transferred to PVDF membrane (Millipore, Billerica, Mass.), blocked and probed with antibodies for phospho-SLP-76 (Ser376) (rabbit polyclonal #13177; Cell Signaling Technology Inc., Danvers, Mass.), SLP-76 (rabbit polyclonal #4958; Cell Signaling Technology Inc., Danvers, Mass.), phospho-ERK (mouse monoclonal sc-7383; Santa Cruz Biotechnology Inc., Santa Cruz, Calif.) and ERK1/2 (rabbit polyclonal 06-182; Millipore, Billerica, Mass.). Secondary antibodies were diluted 1 in 15,000 and incubated for 1 h at rt. Protein bands were visualized and quantified using Odyssey near infrared imager (LI-COR, Lincoln, Nebr.).
(§3) Table 2 below lists effects of representative compounds of the present invention against SLP-76 serine 376 phosphorylation and ERK1/2 T202/Y204 phosphorylation in α-CD3 stimulated Jurkat E6.1 cells.
In general terms: In western blotting, separated proteins are transferred to a membrane and probed.

Assay [3] deals with T2, human HPK1 (MAP4K1) (Homo sapiens, UniProt Q92918).
T2 construct: human HPK1 (aa 1-346); purchased Invitrogen PV6355
T2 sequence (Q92918 1-346): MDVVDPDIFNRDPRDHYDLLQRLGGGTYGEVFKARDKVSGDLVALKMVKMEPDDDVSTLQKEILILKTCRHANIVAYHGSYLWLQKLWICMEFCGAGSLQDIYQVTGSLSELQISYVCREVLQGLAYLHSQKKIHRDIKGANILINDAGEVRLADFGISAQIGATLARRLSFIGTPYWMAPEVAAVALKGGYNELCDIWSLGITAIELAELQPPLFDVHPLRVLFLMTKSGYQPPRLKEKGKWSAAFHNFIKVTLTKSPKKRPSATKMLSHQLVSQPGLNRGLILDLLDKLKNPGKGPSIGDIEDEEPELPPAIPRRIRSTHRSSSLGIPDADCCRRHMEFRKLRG
As to the kind of experiment: HPK1 inhibition assay (indirect ELISA). As to conditions: GST-HPK1 0.6 nM, 12 μM ATP; read-out: IC50 Range HPK1. The format is biochemical. In short, it runs like this:
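GST-tagged human HPK1 (aa 1-346, 0.6 nM) phosphorylated MBP-coated wells with 12 μM ATP in MOPS pH 7.2/Mg2+ buffer for 30 min after 15-min compound preincubation; phospho-Thr detected by antibody ELISA with TMB, 450 nm. Tested at 10 μM or 10-point titration (typically 50-0.1 μM); IC50 by 4-parameter logistic fit.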
(In an ELISA, binding on a coated surface is turned into a signal by an enzyme label.)

Assay [4] has as its target T3, LCK (Homo sapiens, UniProt P06239).
T3 construct: purchased Invitrogen P3043
As to the kind of experiment: LCK inhibition, FRET based Z'-LYTE Kinase Assay. The format is biochemical. As to conditions: 25 nM LCK, 180 μM ATP; read-out: IC50 Range Lck. The method, then: as §1

Assay [5] has as its system SLP-76 serine 376 phosphorylation in α-CD3 stimulated Jurkat E6.1 cells. In words: In vitro phosphorylation assay, SLP-76 Ser376 (immunoblot). The format is cell-based. As to conditions: Homo sapiens, 4 h pretreatment, substantive = >75% inhibition as estimated by immunoblot analysis, read-out: SLP76 S376 Phosphorylation Onset-Substantive* Inhibition. The procedure: as §2, §3

T3 sequence (P06239 whole entry, species assumed): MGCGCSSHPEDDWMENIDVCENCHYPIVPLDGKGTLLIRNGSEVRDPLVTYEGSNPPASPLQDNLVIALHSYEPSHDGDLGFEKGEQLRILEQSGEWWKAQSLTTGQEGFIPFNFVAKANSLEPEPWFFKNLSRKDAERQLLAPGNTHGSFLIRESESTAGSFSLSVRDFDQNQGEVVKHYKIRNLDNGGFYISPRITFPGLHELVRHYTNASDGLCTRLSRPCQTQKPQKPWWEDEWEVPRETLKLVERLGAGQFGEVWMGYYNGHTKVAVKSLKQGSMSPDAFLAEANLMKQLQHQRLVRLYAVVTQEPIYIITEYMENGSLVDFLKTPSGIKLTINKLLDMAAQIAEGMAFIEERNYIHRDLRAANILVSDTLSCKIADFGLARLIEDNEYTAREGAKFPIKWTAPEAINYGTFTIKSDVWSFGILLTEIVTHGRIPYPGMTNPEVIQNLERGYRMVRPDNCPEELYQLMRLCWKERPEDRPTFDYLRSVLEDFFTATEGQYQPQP

As to `CN1CCN(c2ccc3nc(-c4c(N[C@@H]5CCOC5)c5ccsc5[nH]c4=O)[nH]c3c2)CC1` [Example A10, (R)-5-(6-(4-methylpiperazin-1-yl)-1H-benzo[d]imidazol-2-yl)-4-((tetrahydrofuran-3-yl)amino)thieno[2,3-b]pyridin-6(7H)-one], the negative-log IC50 (pIC50) is ≥ 7.30 in assay [1], ≥ 7.30 in assay [3] and 6.30 to 7.30 in assay [4]. Besides, the minimal effective concentration in assay [2] is > 3 µM. For the same compound, the IC75 in assay [5] was 1000 to 3000 nM.
Consider `CN1CCC(Nc2c(-c3nc4ccc(N5CCOCC5)cc4[nH]3)c(=O)[nH]c3sccc23)CC1` [Example A18, 4-((1-methylpiperidin-4-yl)amino)-5-(6-morpholino-1H-benzo[d]imidazol-2-yl)thieno[2,3-b]pyridin-6(7H)-one], for which the pIC50 in assay [1] was ≥ 7.30; in assay [3] it was ≥ 7.30; in assay [4] it was 6.30 to 7.30. For the same compound, the minimal effective concentration in assay [2] is > 3 µM. For the same compound, the IC75 in assay [5] is 300 to 1000 nM.
In the case of `CN1CCN(c2ccc3nc(-c4c(N)c5c(N6CCNCC6)csc5[nH]c4=O)[nH]c3c2)CC1` [Example A21, 4-amino-5-(6-(4-methylpiperazin-1-yl)-1H-benzo[d]imidazol-2-yl)-3-(piperazin-1-yl)thieno[2,3-b]pyridin-6(7H)-one], the results for the pIC50 in assay [1], in assay [3] and in assay [4] were 6.30 to 7.30, ≥ 7.30 and < 6.30, respectively. In addition, the minimal effective concentration in assay [2] was > 3 µM. For the same compound, the IC75 in assay [5] was > 3000 nM.
Turning to `CN1CCN(c2ccc3nc(-c4c(N)c5cscc5[nH]c4=O)[nH]c3c2)CC1` [Example A23, 4-amino-3-(6-(4-methylpiperazin-1-yl)-1H-benzo[d]imidazol-2-yl)thieno[3,4-b]pyridin-2(1H)-one], the negative-log IC50 (pIC50) in assay [1], in assay [3] and in assay [4] was ≥ 7.30 throughout. Besides, in assay [2], the minimal effective concentration is > 3 µM. Also, the IC75 in assay [5] was 300 to 1000 nM.
For `CN1CCN(c2ccc3nc(-c4c(N)c5sccc5[nH]c4=O)[nH]c3c2)CC1` [Example A30, 7-amino-6-(6-(4-methylpiperazin-1-yl)-1H-benzo[d]imidazol-2-yl)thieno[3,2-b]pyridin-5(4H)-one], the negative logarithm of the IC50 (pIC50) in assay [1], in assay [3] and in assay [4] was ≥ 7.30 each time. For the same compound, the minimal effective concentration in assay [2] is > 3 µM. For the same compound, in assay [5], the IC75 is 300 to 1000 nM.
Regarding `CN1CCN(c2ccc3nc(-c4c(NC5CCCC5)c5sccc5[nH]c4=O)[nH]c3c2)CC1` [Example A34, 7-(cyclopentylamino)-6-(6-(4-methylpiperazin-1-yl)-1H-benzo[d]imidazol-2-yl)thieno[3,2-b]pyridin-5(4H)-one], the negative logarithm of the IC50 (pIC50) in assay [1], in assay [3] and in assay [4] was ≥ 7.30 throughout. Also, the minimal effective concentration in assay [2] was 3 µM. In assay [5], the IC75 is 1000 to 3000 nM.
Consider `CN1CCN(c2ccc3nc(-c4c(N[C@H]5CC[C@H](O)CC5)c5sccc5[nH]c4=O)[nH]c3c2)CC1` [Example A37, 7-(((1r,4r)-4-hydroxycyclohexyl)amino)-6-(6-(4-methylpiperazin-1-yl)-1H-benzo[d]imidazol-2-yl)thieno[3,2-b]pyridin-5(4H)-one], for which the negative logarithm of the IC50 (pIC50) in assay [1], in assay [3] and in assay [4] was ≥ 7.30 in each case. Also, the minimal effective concentration in assay [2] was in the range of 1 to 3 µM. In assay [5], the IC75 is 100 to 300 nM.
Take `O=c1[nH]c2ccsc2c(NC2CCNCC2)c1-c1nc2ccc(N3CCOCC3)cc2[nH]1` [Example A43, 6-(6-morpholino-1H-benzo[d]imidazol-2-yl)-7-(piperidin-4-ylamino)thieno[3,2-b]pyridin-5(4H)-one]: the values for the negative-log IC50 (pIC50) in assay [1], in assay [3] and in assay [4] were ≥ 7.30, ≥ 7.30 and 6.30 to 7.30, respectively. The minimal effective concentration in assay [2] was > 3 µM. Further, the IC75 in assay [5] was 100 to 300 nM.
Consider `CN1CCN(c2ccc3nc(-c4c(N[C@H]5CCCC[C@H]5O)c5ccsc5[nH]c4=O)[nH]c3c2)CC1` [Example A57, 4-(((1S,2R)-2-hydroxy-cyclohexyl)amino)-5-(6-(4-methylpiperazin-1-yl)-1H-benzo[d]imidazol-2-yl)thieno-[2,3-b]pyridin-6(7H)-one], for which the values for the pIC50 in assay [1], in assay [3] and in assay [4] were ≥ 7.30, ≥ 7.30 and 6.30 to 7.30, respectively. In assay [2], the minimal effective concentration was > 3 µM. Further, the IC75 in assay [5] is 300 to 1000 nM.
For `CN1CCN(c2ccc3nc(-c4c(N[C@H]5CCC[C@H]5O)c5ccsc5[nH]c4=O)[nH]c3c2)CC1` [Example A58, 4-(((1S,2R)-2-hydroxy-cyclopentyl)amino)-5-(6-(4-methylpiperazin-1-yl)-1H-benzo[d]imidazol-2-yl)-thieno[2,3-b]pyridin-6(7H)-one], the values for the negative-log IC50 (pIC50) in assay [1], in assay [3] and in assay [4] were ≥ 7.30, ≥ 7.30 and 6.30 to 7.30, respectively. In addition, the minimal effective concentration in assay [2] was > 3 µM. For the same compound, in assay [5], the IC75 was 100 to 300 nM.
Consider `CN1CCN(c2ccc3nc(-c4c(N[C@@H]5CCOC5)c5cscc5[nH]c4=O)[nH]c3c2)CC1` [Example A71, (R)-3-(6-(4-methylpiperazin-1-yl)-1H-benzo[d]imidazol-2-yl)-4-((tetrahydrofuran-3-yl)amino)thieno[3,4-b]pyridin-2(1H)-one], for which the negative-log IC50 (pIC50) in assay [1], in assay [3] and in assay [4] was ≥ 7.30 in each case.
On to `O=c1[nH]c2sccc2c(N[C@H]2CCCC[C@H]2O)c1-c1nc2ccc(N3CCOCC3)cc2[nH]1` [Example A72, 4-(((1S,2R)-2-hydroxycyclohexyl)amino)-5-(6-morpholino-1H-benzo[d]imidazol-2-yl)thieno[2,3-b]pyridin-6(7H)-one], for which the pIC50 in assay [1] was ≥ 7.30; in assay [3], ≥ 7.30; in assay [4], < 6.30.
